This data set addresses IRF4. The settings on record: ASO.

This is an account of results in the OligoGym collection.

Several values for one entry are separate records, joined by “and”; a condition that tells them apart may be missing. Equal entries are not always repeated. After the bases stand the sugars from the 5' end (letter, count) and the backbone: PS all phosphorothioate, else s phosphorothioate and o phosphodiester by linkage. Methylation of C is not given here. e = 2'-O-(2-methoxyethyl) (MOE); k = constrained ethyl (cEt); d = 2'-deoxy (DNA)

For GAGAATTCCAAACCTT (sugars k3 d10 k3, PS), the target mRNA inhibition by setting is: (MM.1R, 0.0625 µM) 6%; (MM.1R, 0.074 µM) 1%; (MM.1R, 0.222 µM) 13%; (MM.1R, 0.25 µM) 5%; (MM.1R, 0.666 µM) 38%; (MM.1R, 1 µM) 15%. Also, the target mRNA inhibition by setting is: (MM.1R, 2 µM) 69%; (MM.1R, 4 µM) 55%; (SK-MEL-28, 4 µM) 76%.
For the sequence ACCAATTTATGCCATG (sugars k3 d10 k3, PS), the target mRNA inhibition (SK-MEL-28, 4 µM) was 17%.
Take AATGTCCACTGTTTTG (sugars k3 d10 k3, PS): the target mRNA inhibition (SK-MEL-28, 4 µM) was determined as 47%.
The same measure, in the same setting: with TACAAAACGGACTGGA (sugars k3 d10 k3, PS) the figure was 38%; with AATTAAAGAGCGCATT (sugars k3 d10 k3, PS), 17%; with CCCGACACGCGCCGCT (sugars k3 d10 k3, PS), 12%.
Consider ACCGACTCTTTTTTTA (sugars k3 d10 k3, PS), for which the target mRNA inhibition (MM.1R, 1 µM) is -2%.
CTACAGATCTCAGCAA (sugars k3 d10 k3, PS): the target mRNA inhibition (SK-MEL-28, 4 µM) amounted to 18%.
On to “AAGCAGTGATGTCAGG (sugars kkdddddddddkekek, PS)”, for which, under “MM.1R, 1 µM”, the target mRNA inhibition is 43% and 44%.
Take AACAAACAGAGGAGCG (sugars k3 d10 k3, PS): the target mRNA inhibition (SK-MEL-28, 4 µM) turned out to be 16%.
Regarding AACGACTCCACAGAGC (sugars k3 d10 k3, PS), the target mRNA inhibition (MM.1R, 1 µM) was 4%.
Take ATTCCAACAGGCGGAC (sugars k3 d10 k3, PS): the target mRNA inhibition (MM.1R, 1 µM) was found to be 2%.
Regarding TGCATCTATAAGATGT (sugars k4 d8 k4, PS), the target mRNA inhibition (SK-MEL-28, 4 µM) was determined as 10%.
As for TACATCACTGCAGTTC (sugars k3 d10 k3, PS), under “SK-MEL-28, 4 µM”, the target mRNA inhibition was found to be 68%.
Turning to CCCAAGATCGAGCGGT (sugars k3 d10 k3, PS), the target mRNA inhibition (SK-MEL-28, 4 µM) stood at 28%.
With GGCGACGACAGCTGCG (sugars k3 d10 k3, PS), the target mRNA inhibition (MM.1R, 1 µM) was -15%.
For the sequence “GGGATTATATACTGGT (sugars kdddddddddkekeke, PS)”, where the note is “MM.1R, 1 µM”, the target mRNA inhibition was found to be 29%.
Turning to CACATCAATGTTTTAG (sugars k3 d10 k3, PS), the target mRNA inhibition (H929, 0.04 µM) came out at 14%; the target mRNA inhibition (KMS11, 0.2 µM) is 61% and 78%; the target mRNA inhibition (MM.1R, 0.0625 µM) came to 48%; the target mRNA inhibition (MM.1R, 0.25 µM) worked out at 62%; the target mRNA inhibition (MM.1R, 1 µM) was 66% and 75% and 72%; the target mRNA inhibition (MM.1R, 4 µM) is 89%.
For the sequence ACGATGATAGCTCACC (sugars k3 d10 k3, PS), the target mRNA inhibition (SK-MEL-28, 4 µM) came out at 8%.
In the case of “TTCATGTAAAGTCTGC (sugars kkddddddddddkeke, PS)”, the target mRNA inhibition (MM.1R, 1 µM) was 49% and 28%.
Take CTGTAAGGGCTGCTCA (sugars k3 d10 k3, PS): the target mRNA inhibition (SK-MEL-28, 4 µM) turned out to be 56%.
For “AGTGACTTGCATCCAT (sugars kdddddddddkekeke, PS)”, the target mRNA inhibition (MM.1R, 1 µM) was 8%.
As to “GTAGTATGAGAAACGG (sugars kkddddddddddkeke, PS)”, the target mRNA inhibition (MM.1R, 1 µM) is 28%.
Still for that read-out and setting: with “ACTGTTACCGATGCTT (sugars kddddddddddkekek, PS)” the figure was 20%.
In the case of AGGGAGACAGCTCTAG (sugars k3 d10 k3, PS), the target mRNA inhibition (SK-MEL-28, 4 µM) was determined as 25%.
Turning to TGACATCATTTAGGTA (sugars k3 d10 k3, PS), the target mRNA inhibition (SK-MEL-28, 4 µM) was found to be 54%.
“GCACATCAATGTTTTA (sugars kkdddddddddekeke, PS)”: the target mRNA inhibition (MM.1R, 1 µM) was 10% and 12%.
On the same count and under the same terms, the value for CCTATGCTGAACCCCA (sugars k3 d10 k3, PS) was -12%.
Turning to GAGCGGCCGTGGTGAG (sugars k3 d10 k3, PS), the target mRNA inhibition (SK-MEL-28, 4 µM) is 41%.
As to “AGCATTTTATCATCCG (sugars kkkddddddddkekek, PS)”, the target mRNA inhibition (MM.1R, 1 µM) was determined as 22%.
Turning to GCCTTCTCGGAACTTT (sugars k3 d10 k3, PS), for the setting “SK-MEL-28, 4 µM”, the target mRNA inhibition turned out to be 32%.
Regarding CAGCATTGGACCCACG (sugars k3 d10 k3, PS), for the setting “MM.1R, 1 µM”, the target mRNA inhibition came to 4%.
For the sequence GAAATGTCAAACCCTA (sugars k3 d10 k3, PS), the target mRNA inhibition (SK-MEL-28, 4 µM) was found to be 71%.
Take ATAACATGAGAGTGTT (sugars k3 d10 k3, PS): the target mRNA inhibition (MM.1R, 1 µM) was -17%.
Turning to GAATAGGAAGATATCA (sugars k3 d10 k3, PS), the target mRNA inhibition (SK-MEL-28, 4 µM) amounted to 6%.
With GCTAGAACATGATGAG (sugars k3 d10 k3, PS), the target mRNA inhibition (SK-MEL-28, 4 µM) came to 14%.
With “CTATAGTGTTCCAGGA (sugars kdddddddddkekeke, PS)”, the target mRNA inhibition (MM.1R, 1 µM) stood at 12%.
As to ACTCATGGAGGATCAT (sugars k3 d10 k3, PS), the target mRNA inhibition (SK-MEL-28, 4 µM) amounted to 19%.
Same read-out and setting: with GTAAATGAGTCGGTCA (sugars k3 d10 k3, PS) the figure was 79%; with AATGAGTCGGTCACTT (sugars k3 d10 k3, PS), 46%.
As to TGTGTCAAAGAGCTTG (sugars k4 d8 k4, PS), the target mRNA inhibition (SK-MEL-28, 4 µM) was determined as 26%.
In the case of AACACTTGGAGAAGTC (sugars k3 d10 k3, PS), the target mRNA inhibition (SK-MEL-28, 4 µM) came out at 43%.
